# Results taken from ChEMBL document CHEMBL5325399, “Pleiotropic effects of a mitochondrion-targeted glutathione reductase inhibitor on restraining tumor cells” (Eur J Med Chem, 2023).
# Active and inactive are the calls of the source. No cut-off for these calls is given here.
# Assays:
# Cell membrane [1] = experiment: Dissipation of mitochondrial membrane potential in human HeLa cells assessed as proportion of cells with low MMP measured after 24 hrs by JC-1 staining based flow cytometry (reference value: 3.01%); settings: Mitochondria
# Cell membrane [2] = experiment: Dissipation of mitochondrial membrane potential in human HeLa cells assessed as proportion of cells with high MMP measured after 24 hrs by JC-1 staining based flow cytometry (reference value: 96.54%); settings: Mitochondria
# HeLa [3] = experiment: Cytotoxicity against human HeLa cells assessed as reduction in cell viability measured after 48 hrs; format: functional, cell-based
# [4] = biological target: T1, Glutathione reductase, mitochondrial (Homo sapiens) (UniProt P00390); experiment: Covalent binding affinity to Cys278 residue of glutathione reductase (unknown origin) by mass spectrometry
# T1 sequence (whole entry): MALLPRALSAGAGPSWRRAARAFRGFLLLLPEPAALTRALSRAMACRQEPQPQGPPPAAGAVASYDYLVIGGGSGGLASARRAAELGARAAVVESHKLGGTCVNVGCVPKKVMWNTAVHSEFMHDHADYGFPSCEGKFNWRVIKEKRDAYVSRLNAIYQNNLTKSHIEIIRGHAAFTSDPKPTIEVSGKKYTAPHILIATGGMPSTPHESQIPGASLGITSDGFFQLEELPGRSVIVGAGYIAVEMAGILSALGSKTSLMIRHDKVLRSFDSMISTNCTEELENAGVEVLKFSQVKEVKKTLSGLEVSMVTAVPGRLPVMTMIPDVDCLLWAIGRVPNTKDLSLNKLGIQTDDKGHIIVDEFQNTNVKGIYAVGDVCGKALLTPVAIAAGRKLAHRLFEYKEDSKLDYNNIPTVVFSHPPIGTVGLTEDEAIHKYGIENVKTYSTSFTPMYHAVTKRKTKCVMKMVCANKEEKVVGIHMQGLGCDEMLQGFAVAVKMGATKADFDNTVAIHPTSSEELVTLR
# [5] = biological target: T2, Glutathione reductase, mitochondrial (Homo sapiens, UniProt P00390); experiment: Inhibition of glutathione reductase (unknown origin)
# T2 sequence (P00390 whole entry): T1 sequence (whole entry)
# A549 = experiment: Cytotoxicity against human A549 cells assessed as reduction in cell viability measured after 48 hrs; format: functional, cell-based; settings: A549, 48 h
# HepG2 [6] = experiment: Cytotoxicity against human HepG2 cells assessed as reduction in cell viability measured after 48 hrs; format: functional, cell-based; settings: HepG2, 48 h
# [7] = Drug uptake in human HeLa cells mitochondria measured after 6 hrs; format: ADME
# HCT-116 = experiment: Cytotoxicity against human HCT-116 cells assessed as reduction in cell viability measured after 48 hrs; format: functional, cell-based; settings: HCT-116, 48 h
# MCF7 = experiment: Cytotoxicity against human MCF7 cells assessed as reduction in cell viability measured after 48 hrs; format: functional, cell-based; settings: MCF7, 48 h
# [8] = biological target: T1, Glutathione reductase, mitochondrial (Homo sapiens); experiment: Inhibition of glutathione reductase in human HeLa cells mitochondria; settings: concentration not given here
# HepG2 [9] = experiment: Inhibition of mitochondrial respiration in human HepG2 cells assessed as decrease in oxygen consumption rate by Seahorse XF-bioenergetic system analysis; format: functional, cell-based
# HeLa [10] = experiment: Decrease in reduced glutathione (GSH) levels in human HeLa cells; format: functional, cell-based
# HeLa [11] = experiment: Cytotoxicity against GR-knock out human HeLa cells assessed as reduction in cell viability at 10 uM incubated for 48 hrs; format: functional, cell-based
# [12] = biological target: T1, Glutathione reductase, mitochondrial (Homo sapiens); experiment: Inhibition of glutathione reductase in human HeLa cells; format: cell-based; settings: concentration not given here
# Cell membrane [13] = experiment: Dissipation of mitochondrial membrane potential in human HeLa cells assessed as proportion of cells with high MMP at 0.5 uM measured after 24 hrs by JC-1 staining based flow cytometry (reference value: 96.54%); settings: Mitochondria
# HeLa [14] = experiment: Inhibition of mitochondrial respiration in human HeLa cells assessed as decrease in ATP production capacity; format: functional, cell-based
# HeLa [15] = experiment: Inhibition of mitochondrial respiration in human HeLa cells assessed as increase in proton leakage; format: functional, cell-based
# Cell membrane [16] = experiment: Dissipation of mitochondrial membrane potential in human HeLa cells assessed as proportion of cells with high MMP at 5 uM measured after 24 hrs by JC-1 staining based flow cytometry (reference value: 96.54%); settings: Mitochondria
# HeLa [17] = experiment: Induction of autophagy in human HeLa cells assessed as downregulation of p62 expression incubated for 24 hrs by immunoblotting analysis; format: functional, cell-based; settings: dose 0.5-10 µM
# HeLa [18] = experiment: Induction of mitochondrial morphological changes in human HeLa cells assessed as multilayered vesicles formation at IC50 incubated for 48 hrs by transmission electron microscopy; format: functional, cell-based
# HeLa [19] = experiment: Induction of mitochondrial morphological changes in human HeLa cells assessed as disappearance of cristae and vacuolar mitochondrial formation at 10 uM incubated for 48 hrs by transmission electron microscopy; format: functional, cell-based
# HeLa [20] = experiment: Induction of ROS production in human HeLa cells by DCFDA staining based fluorescence analysis; format: functional, cell-based
# Cell membrane [21] = experiment: Dissipation of mitochondrial membrane potential in human HeLa cells assessed as proportion of cells with low MMP at 5 uM measured after 24 hrs by JC-1 staining based flow cytometry (reference value: 3.01%); settings: Mitochondria
# HeLa [22] = experiment: Increase in oxidized glutathione (GSSG) levels in human HeLa cells assessed as decrease in ratio of intracellular GSH to GSSG at 1 to 20 uM; format: functional, cell-based; settings: dose 1-20 µM
# Cell membrane [23] = experiment: Dissipation of mitochondrial membrane potential in human HeLa cells assessed as increase in green fluorescence intensity at 0.5 to 5 uM measured after 24 hrs by JC-1 staining based fluorescence microscopy; settings: Mitochondria, dose 0.5-5 µM
# HeLa [24] = experiment: Inhibition of glycolysis in human HeLa cells assessed as decrease in extracellular acidification rate at 2 uM; format: functional, cell-based
# Cell membrane [25] = experiment: Dissipation of mitochondrial membrane potential in human HeLa cells assessed as proportion of cells with low MMP at 0.5 uM measured after 24 hrs by JC-1 staining based flow cytometry (reference value: 3.01%); settings: Mitochondria
# HeLa [26] = experiment: Inhibition of mitochondrial respiration in human HeLa cells assessed as decrease in oxygen consumption rate at 2 uM incubated for 24 hrs by Seahorse XF-bioenergetic system analysis; format: functional, cell-based
# HeLa [27] = experiment: Induction of mitophagy in human HeLa cells assessed as colocalization of mitochondria and lysosomes by confocal laser scanning microscopy; format: functional, cell-based
# HeLa [28] = experiment: Inhibition of mitochondrial respiration in human HeLa cells assessed as decrease in basal respiration; format: functional, cell-based
# HepG2 [29] = experiment: Inhibition of glycolysis in human HepG2 cels assessed as decrease in extracellular acidification rate; format: functional, cell-based
# HeLa [30] = experiment: Induction of mitophagy in human HeLa cells assessed as localization of mitochondria in vacuoles at 10 uM incubated for 48 hrs by transmission electron microscopy; format: functional, cell-based
# HeLa [31] = experiment: Induction of autophagy in human HeLa cells assessed as increase in ratio of lipidated LC3B-II to LC3B-I incubated for 24 hrs by immunoblotting analysis; format: functional, cell-based; settings: dose 0.5-10 µM
# HeLa [32] = experiment: Decrease in reduced glutathione (GSH) levels in human HeLa cells at 1 to 5 uM incubated for 6 hrs by Thiol-tracker Violet based confocal imaging analysis; format: functional, cell-based; settings: dose 1-5 µM
# HeLa [33] = experiment: Induction of mitochondrial morphological changes in human HeLa cells assessed as increase in Mitofilin expression at 2 uM by immunofluorescence analysis; format: functional, cell-based
# [34] = Increase in oxidized glutathione (GSSG) levels in human HeLa cells relative to control; format: functional
# HeLa [35] = experiment: Induction of autophagy in human HeLa cells assessed as autophagosomes vacuole formation; format: functional, cell-based
smiles,measurement,setting,value
N#CC(C#N)=NNc1cccc(Cl)c1,Activity,Cell membrane [1],98.8%
same,Activity,Cell membrane [2],1.24%
COc1ccc(C(=O)/C=C/c2cccc([N+](=O)[O-])c2)cc1F,IC50,HeLa [3],> 50 µM
same,Activity,[4],inactive
same,IC50,[5],Not Active
same,IC50,A549,> 100 µM
same,IC50,HepG2 [6],> 50 µM
same,Drug uptake,[7],12%
same,IC50,HCT-116,> 50 µM
same,IC50,MCF7,> 100 µM
O=C(/C=C/c1cccc([N+](=O)[O-])c1)c1ccc(OCc2cn(CCCC[P+](c3ccccc3)(c3ccccc3)c3ccccc3)nn2)c(F)c1,inhibition,[8],50%
same,IC50,HeLa [3],2.4 µM
same,Activity,[4],Active
same,inhibition,HepG2 [9],Active
same,inhibition,HeLa [10],inactive
same,Activity,HeLa [11],inactive
same,inhibition,[12],20%
same,Activity,Cell membrane [13],49.4%
same,inhibition,HeLa [14],Active
same,IC50,[5]; read-out: IC50,0.59 µM
same,inhibition,HeLa [15],Active
same,Activity,Cell membrane [16],15.6%
same,Activity,HeLa [17],Dose-Dependent Effect
same,IC50,A549,10.2 µM
same,Activity,HeLa [18],Active
same,Activity,HeLa [19],Active
same,Activity,HeLa [20],Active
same,Activity,Cell membrane [21],80.7%
same,IC50,HepG2 [6],4.6 µM
same,Activity,HeLa [22],Active
same,Activity,Cell membrane [23],Active
same,Drug uptake,[7],33%
same,inhibition,HeLa [24],Active
same,Activity,Cell membrane [25],50.1%
same,inhibition,HeLa [26],Active
same,Activity,HeLa [27],Active
same,inhibition,HeLa [28],Active
same,inhibition,HepG2 [29],Active
same,IC50,HCT-116,8.2 µM
same,Activity,HeLa [30],Active
same,Activity,HeLa [31],Dose-Dependent Effect
same,inhibition,HeLa [32],inactive
same,IC50,MCF7,17.4 µM
same,Activity,HeLa [33],Active
same,fold change (FC),[34],2
same,Activity,HeLa [35],Active
